For 34 compounds, activity coefficient results are on record in the NIST ThermoML archive (doi:10.1021/je100410k).

Numbers after ± are expanded uncertainties.

The first data set is described as follows: activity coefficient (dimensionless); of the first substance listed, at infinite dilution; xn = mol fraction of the nth substance listed. To be noted: 358.15 K; 101 kPa; Liquid; Chromatography; x1 = 0.
For `CCCCCCC` [heptane] + CCCCn1cc[n+](C)c1.Cc1ccc(S(=O)(=O)[O-])cc1, the activity coefficient is 39.2 ± 2.7.
On the same count and under the same terms, the value for `CCCCCC` [hexane] + CCCCn1cc[n+](C)c1.Cc1ccc(S(=O)(=O)[O-])cc1 was 29.2 ± 2.

The same data set, now with this note: 358.2 K; 101 kPa; Liquid; Chromatography; x1 = 0.
Consider `Cc1ccccc1C` [1,2-dimethylbenzene] + CCCCn1cc[n+](C)c1.Cc1ccc(S(=O)(=O)[O-])cc1, for which the activity coefficient came out at 3.96 ± 0.27.
Same read-out and setting: then `Cc1cccc(C)c1` [1,3-dimethylbenzene] + CCCCn1cc[n+](C)c1.Cc1ccc(S(=O)(=O)[O-])cc1, with 4.63 ± 0.32; and `Cc1ccc(C)cc1` [1,4-dimethylbenzene] + CCCCn1cc[n+](C)c1.Cc1ccc(S(=O)(=O)[O-])cc1, with 4.61 ± 0.31.
Take `C=CCCCCC` [1-heptene] + CCCCn1cc[n+](C)c1.Cc1ccc(S(=O)(=O)[O-])cc1: the activity coefficient is 21.5 ± 1.5.
For the compound `C#CCCCCC` [1-heptyne] + CCCCn1cc[n+](C)c1.Cc1ccc(S(=O)(=O)[O-])cc1, the activity coefficient came to 5.34 ± 0.36.
The same measure, in the same setting: the value for `C#CCCCC` [1-hexyne] + CCCCn1cc[n+](C)c1.Cc1ccc(S(=O)(=O)[O-])cc1 was 3.86 ± 0.26; that for `C#CCCCCCC` [1-octyne] + CCCCn1cc[n+](C)c1.Cc1ccc(S(=O)(=O)[O-])cc1 was 7.39 ± 0.5.
Take `C=CCCC` [1-pentene] + CCCCn1cc[n+](C)c1.Cc1ccc(S(=O)(=O)[O-])cc1: the activity coefficient is 11.9 ± 0.8.
Turning to `COC(C)(C)C` [2-methoxy-2-methylpropane] + CCCCn1cc[n+](C)c1.Cc1ccc(S(=O)(=O)[O-])cc1, the activity coefficient was found to be 7.58 ± 0.52.
Same read-out and setting: the value for `CC(C)=O` [acetone] + CCCCn1cc[n+](C)c1.Cc1ccc(S(=O)(=O)[O-])cc1 was 1.45 ± 0.1.
The same measure, in the same setting: then `c1ccccc1` [benzene] + CCCCn1cc[n+](C)c1.Cc1ccc(S(=O)(=O)[O-])cc1, with 1.93 ± 0.13.
The same measure, in the same setting: the value for `C1CCCCCC1` [cycloheptane] + CCCCn1cc[n+](C)c1.Cc1ccc(S(=O)(=O)[O-])cc1 was 15.4 ± 1.1; that for `C1CCCCC1` [cyclohexane] + CCCCn1cc[n+](C)c1.Cc1ccc(S(=O)(=O)[O-])cc1 was 13.4 ± 0.9; that for `C1CCCCCCC1` [cyclooctane] + CCCCn1cc[n+](C)c1.Cc1ccc(S(=O)(=O)[O-])cc1 was 18.6 ± 1.3.
For the compound `C1CCCC1` [cyclopentane] + CCCCn1cc[n+](C)c1.Cc1ccc(S(=O)(=O)[O-])cc1, the activity coefficient worked out at 9.3 ± 0.6.
Still for that read-out and setting: the value for `CCCCCCCCCC` [decane] + CCCCn1cc[n+](C)c1.Cc1ccc(S(=O)(=O)[O-])cc1 was 98.3 ± 6.7; that for `CCOCC` [diethyl ether] + CCCCn1cc[n+](C)c1.Cc1ccc(S(=O)(=O)[O-])cc1 was 6.16 ± 0.42; that for `CCCOCCC` [dipropyl ether] + CCCCn1cc[n+](C)c1.Cc1ccc(S(=O)(=O)[O-])cc1 was 14.2 ± 1.
`CCO` [ethanol] + CCCCn1cc[n+](C)c1.Cc1ccc(S(=O)(=O)[O-])cc1: the activity coefficient turned out to be 0.358 ± 0.033.
On to `CCc1ccccc1` [ethylbenzene] + CCCCn1cc[n+](C)c1.Cc1ccc(S(=O)(=O)[O-])cc1, for which the activity coefficient was found to be 4.36 ± 0.3.
Same read-out and setting: then `C=CCCCC` [hex-1-ene] + CCCCn1cc[n+](C)c1.Cc1ccc(S(=O)(=O)[O-])cc1, with 15.7 ± 1.1; and `CO` [methanol] + CCCCn1cc[n+](C)c1.Cc1ccc(S(=O)(=O)[O-])cc1, with 0.221 ± 0.029; and `CCCCCCCCC` [nonane] + CCCCn1cc[n+](C)c1.Cc1ccc(S(=O)(=O)[O-])cc1, with 71.3 ± 4.9.
Still for that read-out and setting: the value for `C=CCCCCCC` [oct-1-ene] + CCCCn1cc[n+](C)c1.Cc1ccc(S(=O)(=O)[O-])cc1 was 29.5 ± 2; that for `CCCCCCCC` [octane] + CCCCn1cc[n+](C)c1.Cc1ccc(S(=O)(=O)[O-])cc1 was 53 ± 3.6; that for `CCCC(C)=O` [pentan-2-one] + CCCCn1cc[n+](C)c1.Cc1ccc(S(=O)(=O)[O-])cc1 was 2.61 ± 0.18.
On to `CCC(=O)CC` [pentan-3-one] + CCCCn1cc[n+](C)c1.Cc1ccc(S(=O)(=O)[O-])cc1, for which the activity coefficient came out at 2.63 ± 0.18.
The same measure, in the same setting: then `CCCO` [propan-1-ol] + CCCCn1cc[n+](C)c1.Cc1ccc(S(=O)(=O)[O-])cc1, with 0.437 ± 0.035; and `C1CCOC1` [tetrahydrofuran] + CCCCn1cc[n+](C)c1.Cc1ccc(S(=O)(=O)[O-])cc1, with 1.86 ± 0.13; and `c1ccsc1` [thiophene] + CCCCn1cc[n+](C)c1.Cc1ccc(S(=O)(=O)[O-])cc1, with 1.14 ± 0.07.
On the same count and under the same terms, the value for `Cc1ccccc1` [toluene] + CCCCn1cc[n+](C)c1.Cc1ccc(S(=O)(=O)[O-])cc1 was 2.99 ± 0.2.
Same read-out and setting: the value for `O` [water] + CCCCn1cc[n+](C)c1.Cc1ccc(S(=O)(=O)[O-])cc1 was 0.201 ± 0.029.

The data set is the same for the next values; noted with them: 368.15 K; 101 kPa; Liquid; Chromatography; x1 = 0.
With `CCCCCCC` [heptane] + CCCCn1cc[n+](C)c1.Cc1ccc(S(=O)(=O)[O-])cc1, the activity coefficient was found to be 36.6 ± 2.5.
On the same count and under the same terms, the value for `CCCCCC` [hexane] + CCCCn1cc[n+](C)c1.Cc1ccc(S(=O)(=O)[O-])cc1 was 27.6 ± 1.9.

The data set is the same for the next values; noted with them: 368.2 K; 101 kPa; Liquid; Chromatography; x1 = 0.
As for `Cc1ccccc1C` [1,2-dimethylbenzene] + CCCCn1cc[n+](C)c1.Cc1ccc(S(=O)(=O)[O-])cc1, the activity coefficient was 3.93 ± 0.27.
On to `Cc1cccc(C)c1` [1,3-dimethylbenzene] + CCCCn1cc[n+](C)c1.Cc1ccc(S(=O)(=O)[O-])cc1, for which the activity coefficient was determined as 4.58 ± 0.31.
Same read-out and setting: the value for `Cc1ccc(C)cc1` [1,4-dimethylbenzene] + CCCCn1cc[n+](C)c1.Cc1ccc(S(=O)(=O)[O-])cc1 was 4.56 ± 0.31.
Still for that read-out and setting: the value for `C=CCCCCC` [1-heptene] + CCCCn1cc[n+](C)c1.Cc1ccc(S(=O)(=O)[O-])cc1 was 20.4 ± 1.4.
On the same count and under the same terms, then `C#CCCCCC` [1-heptyne] + CCCCn1cc[n+](C)c1.Cc1ccc(S(=O)(=O)[O-])cc1, with 5.43 ± 0.37; and `C#CCCCC` [1-hexyne] + CCCCn1cc[n+](C)c1.Cc1ccc(S(=O)(=O)[O-])cc1, with 3.94 ± 0.27; and `C#CCCCCCC` [1-octyne] + CCCCn1cc[n+](C)c1.Cc1ccc(S(=O)(=O)[O-])cc1, with 7.15 ± 0.49.
As to `C=CCCC` [1-pentene] + CCCCn1cc[n+](C)c1.Cc1ccc(S(=O)(=O)[O-])cc1, the activity coefficient came out at 11.2 ± 0.8.
`COC(C)(C)C` [2-methoxy-2-methylpropane] + CCCCn1cc[n+](C)c1.Cc1ccc(S(=O)(=O)[O-])cc1: the activity coefficient came out at 7.37 ± 0.5.
Still for that read-out and setting: then `CC(C)=O` [acetone] + CCCCn1cc[n+](C)c1.Cc1ccc(S(=O)(=O)[O-])cc1, with 1.42 ± 0.09; and `c1ccccc1` [benzene] + CCCCn1cc[n+](C)c1.Cc1ccc(S(=O)(=O)[O-])cc1, with 1.93 ± 0.13.
In the case of `C1CCCCCC1` [cycloheptane] + CCCCn1cc[n+](C)c1.Cc1ccc(S(=O)(=O)[O-])cc1, the activity coefficient came out at 14.5 ± 1.
The same measure, in the same setting: then `C1CCCCC1` [cyclohexane] + CCCCn1cc[n+](C)c1.Cc1ccc(S(=O)(=O)[O-])cc1, with 12.5 ± 0.9.
For `C1CCCCCCC1` [cyclooctane] + CCCCn1cc[n+](C)c1.Cc1ccc(S(=O)(=O)[O-])cc1, the activity coefficient came to 17.6 ± 1.2.
`C1CCCC1` [cyclopentane] + CCCCn1cc[n+](C)c1.Cc1ccc(S(=O)(=O)[O-])cc1: the activity coefficient is 9 ± 0.6.
Still for that read-out and setting: the value for `CCCCCCCCCC` [decane] + CCCCn1cc[n+](C)c1.Cc1ccc(S(=O)(=O)[O-])cc1 was 90.8 ± 6.2; that for `CCOCC` [diethyl ether] + CCCCn1cc[n+](C)c1.Cc1ccc(S(=O)(=O)[O-])cc1 was 5.93 ± 0.4; that for `CCCOCCC` [dipropyl ether] + CCCCn1cc[n+](C)c1.Cc1ccc(S(=O)(=O)[O-])cc1 was 13.6 ± 0.9.
On the same count and under the same terms, the value for `CCO` [ethanol] + CCCCn1cc[n+](C)c1.Cc1ccc(S(=O)(=O)[O-])cc1 was 0.358 ± 0.033; that for `CCc1ccccc1` [ethylbenzene] + CCCCn1cc[n+](C)c1.Cc1ccc(S(=O)(=O)[O-])cc1 was 4.32 ± 0.29; that for `C=CCCCC` [hex-1-ene] + CCCCn1cc[n+](C)c1.Cc1ccc(S(=O)(=O)[O-])cc1 was 14.9 ± 1.
Same read-out and setting: then `CO` [methanol] + CCCCn1cc[n+](C)c1.Cc1ccc(S(=O)(=O)[O-])cc1, with 0.223 ± 0.029.
Consider `CCCCCCCCC` [nonane] + CCCCn1cc[n+](C)c1.Cc1ccc(S(=O)(=O)[O-])cc1, for which the activity coefficient was 66.5 ± 4.6.
Still for that read-out and setting: the value for `C=CCCCCCC` [oct-1-ene] + CCCCn1cc[n+](C)c1.Cc1ccc(S(=O)(=O)[O-])cc1 was 28.2 ± 1.9.
Still for that read-out and setting: the value for `CCCCCCCC` [octane] + CCCCn1cc[n+](C)c1.Cc1ccc(S(=O)(=O)[O-])cc1 was 49.6 ± 3.4; that for `CCCC(C)=O` [pentan-2-one] + CCCCn1cc[n+](C)c1.Cc1ccc(S(=O)(=O)[O-])cc1 was 2.58 ± 0.18; that for `CCC(=O)CC` [pentan-3-one] + CCCCn1cc[n+](C)c1.Cc1ccc(S(=O)(=O)[O-])cc1 was 2.6 ± 0.18.
On the same count and under the same terms, then `CCCO` [propan-1-ol] + CCCCn1cc[n+](C)c1.Cc1ccc(S(=O)(=O)[O-])cc1, with 0.437 ± 0.035; and `C1CCOC1` [tetrahydrofuran] + CCCCn1cc[n+](C)c1.Cc1ccc(S(=O)(=O)[O-])cc1, with 1.85 ± 0.12.
Regarding `c1ccsc1` [thiophene] + CCCCn1cc[n+](C)c1.Cc1ccc(S(=O)(=O)[O-])cc1, the activity coefficient turned out to be 1.16 ± 0.07.
For `Cc1ccccc1` [toluene] + CCCCn1cc[n+](C)c1.Cc1ccc(S(=O)(=O)[O-])cc1, the activity coefficient was determined as 2.97 ± 0.2.
With `O` [water] + CCCCn1cc[n+](C)c1.Cc1ccc(S(=O)(=O)[O-])cc1, the activity coefficient was determined as 0.207 ± 0.029.
